According to patent EP4414363A1, “INDOLYLACETIC DERIVATIVES FOR USE IN THE TREATMENT OF NEURODEGENERATIVE DISEASES” (Miuli Pharma S.r.l., priority 2023, dated 2024):

Columns and labels:
iNOS = test: Western blot of LPS-induced iNOS expression in microglia cells; assay type: cell-based, murine; settings: BV2 microglial cells, LPS 100 ng/mL, compound 100nM, 24h
Procedure: (§1) Human neuroblastoma SH-SY5Y cells (Cell bank Line Collection ICLC) and immortalized murine microglial BV-2 cell line were grown as monolayers in polystyrene dishes (12 or 6 wells plate) in Dulbecco's modified Eagle's medium (DMEM) with 10% (v/v) fetal bovine serum (FBS), L glutamine (2 mM), 1% penicillin (50 IU/ml) and streptomycin (50 µg/ml). Cells were grown in a humidified atmosphere containing 95% air and 5% CO2, and the medium was changed every two days. All experiments were conducted in cultures containing cells between the 4th and 8th passages.
(§2) SH-SY5Y and BV-2 cells were plated with a confluence of 65.000 cell/mL. After 24 hours of cell seeding, medium was changed for 6h starvation in a medium containing 0% FBS. […]
(§3) Cells were exposed to compounds or vehicle and, after 24 hours, have been analyzed for Western Blotting experiments or MTT assay.
(§4) Western blot analysis was performed as previously described. Protein samples (50 µg) were analyzed on 8% subjected to SDS-polyacrylamide gel electrophoresis (SDS-PAGE) and electrotransferred onto Hybond ECL nitrocellulose paper (Amersham, Milan, Italy). […]
(§5) Immunoreactive bands were detected using ECL (Amersham). The optical density of the bands (normalized for β-actin) was determined by Chemi-Doc Imaging System (Bio-Rad, Segrate, Italy).

[1] = from reference [15]; cited from earlier work
TNF-α = test: Western blot of LPS-induced TNF-α expression in microglia cells; assay type: cell-based, murine; settings: BV2 microglial cells, LPS 100 ng/mL, compound 100nM, 24h
Procedure: as §1, §2, §3, §4, §5

COX2 = test: Western blot of COX2 expression in LPS-exposed microglia cells; assay type: cell-based, murine; settings: BV2 microglial cells, LPS 100 ng/mL, compound 100nM, 24h
Procedure: as §1, §2, §3, §4, §5

SOD1^G93A mice [2] = test: Survival of ALS mice under prolonged treatment; assay type: in vivo; settings: daily i.p. from 2 months of age, dose group not stated, vehicle 127.9 ± 1.65 days
Excerpt: (§6) B6SJL-TgN SOD1/G93A(+)1Gur mice expressing high copy number of mutant human SOD1 with a Gly93Ala substitution [SOD1^G93A] and B6SJL-TgN (SOD1)2Gur mice expressing wild-type human SOD1 (WT) were obtained from Jackson Laboratories (Bar Harbor, ME, USA). Transgenic animals have been crossed with background-matched B6SJL wild-type female and selective breeding maintained each transgene in the […] state. All transgenic mice were identified analyzing extracts from tail tips by staining for SOD1 as previously described.
(§7) Overall, 24 male and female mice housed under diurnal lighting conditions (12 h darkness/light) were used. The number of female and male mice was balanced among all the experimental groups.
(§8) The newly synthesized compound III, dissolved in distilled water, was intraperitoneally administered daily at a dose of […], beginning at 2 months of age until 4,5 months of age.
Disease end stage was defined by the inability of mice to right themselves within 20 s when placed on their sides.
Data were evaluated as means ± SEM. Statistically significant differences among means were determined by one-way ANOVA followed by Student-Newman-Keuls/Bonferroni post-hoc test for western blotting, and Behavioral test. The Kaplan-Meier plot was used to evaluate survival, grip, rotarod and paralysis onset. Student's t-test was used for two groups comparison. […]

SOD1^G93A mice [3] = test: Paralysis onset in ALS mice; assay type: in vivo; settings: daily i.p., dose group not stated, vehicle 33.69 ± 1.31 days
Excerpt: as §6, §7, §8
(§9) Motor coordination and balance was assessed using a five-station mouse rotarod apparatus (Ugo Basile; Milan, Italy) as previously described. In each station, the rod was 6 cm in length and 3 cm in diameter. […] Mice had three trials on the rod, and the latencies to fall were measured once a week and then averaged. […] Body weight was measured immediately before each session of behavioral tests. […]

[4] = Body weight during prolonged treatment; assay type: in vivo, mice
Excerpt: as §6, §7, §8, §9

SOD1^G93A mice [5] = test: Rotarod test (motor coordination and balance); assay type: in vivo
Excerpt: as §6, §7, §8
Motor coordination and balance was assessed using a five-station mouse rotarod apparatus (Ugo Basile; Milan, Italy) as previously described. In each station, the rod was 6 cm in length and 3 cm in diameter. Mice were trained to maintain balance at increasing speed up to a constant speed of 14 rpm for three consecutive trials. The test sessions were conducted by one rotarod trial administered once a week. In this session, the speed of rotation was increased from 4 to 14 rpm over 60 s. Mice had three trials on the rod, and the latencies to fall were measured once a week and then averaged. […] Weekly evaluation of hind limb paralysis was performed. […] Body weight was measured immediately before each session of behavioral tests.
To investigate whether the reduced neuroinflammatory response observed in vitro through the effect on TNF-α expression was accompanied by an amelioration of the motor performance of these mice, behavioral tests were weekly performed on WT and SOD1^G93A mice, starting from the second month after birth (P60), when i.p. administration of compound III started and when the mice were asymptomatic. […]

SOD1^G93A mice [6] = test: Hind limb grip test; assay type: in vivo
Excerpt: as §6, §7, §8
Hind limb grip test was carried out by placing the mouse on a grid (45 cm long × 28 cm large) upside-down (30 cm above a foam pad). The test was performed once a week and the latency to fall off the grid was also measured up to a maximum of 60 s.
To investigate whether the reduced neuroinflammatory response observed in vitro through the effect on TNF-α expression was accompanied by an amelioration of the motor performance of these mice, behavioral tests were weekly performed on WT and SOD1^G93A mice, starting from the second month after birth (P60), when i.p. administration of compound III started and when the mice were asymptomatic. All animals were assigned to three experimental groups: SOD1^G93A+vehicle, SOD1 ^G93A +compound III at 1 mg/kg, and SOD1 ^G93A +compound III at 10 mg/kg, and then weighed, subjected to rotarod test, grip test and observed to detect the disease onset.

COc1ccc2c(c1)c(CC(=O)O)c(C)n2C1CCN(C)CC1 [Compound II, 2-(5-methoxy-2-methyl-1-(1-methylpiperidin-4-yl)-1H-indol-3-yl)acetic acid]
iNOS induction elicited by LPS (iNOS): prevent iNOS induction | gastric damage evaluated as the lengths of the lesions [1]: 0 mm

CCOC(=O)Cc1c(C)n(C2CCN(C)CC2)c2ccc(OC)cc12 [Compound III, Ethyl 2-(5-methoxy-2-methyl-1-(1-methylpiperidin-4-yl)-1H-indol-3-yl)acetate]
overexpression of TNF-α induced by LPS exposure (TNF-α): prevent the overexpression of TNF-α | COX2 expression (COX2): not COX2 | average lifespan (SOD1^G93A mice [2]): 146.2 ± 3 days | paralysis onset (SOD1^G93A mice [3]): 42.47 ± 1.59 days | body weight ([4]; SOD1^G93A mice treated for 8 weeks, vehicle group 10% reduction at 7 weeks): remained stable over time | body weight ([4]; WT mice, compound versus vehicle): No differences were observed | rotarod: time able to balance on the rotarod (SOD1^G93A mice [5]; SOD1^G93A mice, at 8 weeks of treatment, vehicle 3.7±1 sec, maximum 60 s): 21.4 ± 5 s | rotarod onset (50% of the animals started to fall off the rotarod) (SOD1^G93A mice [5]; SOD1^G93A mice, day of treatment, vehicle around the 30th day): ~45 days | rotarod performance (SOD1^G93A mice [5]; wild type mice): did not disrupt this performance | onset of grip performance loss (50% of the animals started to lose their grip) (SOD1^G93A mice [6]; G93A mice, day after treatment, vehicle around the 35th day): ~45 days | grip performance (latency to fall off the grid) (SOD1^G93A mice [6]; SOD1^G93A mice, at 6 weeks of treatment, vehicle 28.8 ± 4 sec, maximum 60 s): 43.8 ± 4 s | grip performance (time remained on the grid) (SOD1^G93A mice [6]; SOD1^G93A mice, at 8 weeks of treatment): 20 s | gastric damage evaluated as the lengths of the lesions [1]: 3 ± 0.6 mm

COc1ccc2c(c1)c(CC(=O)O)c(C)n2C(=O)c1ccc(Cl)cc1 [indomethacin, reference compound]
gastric damage evaluated as the lengths of the lesions [1]: 50 ± 8 mm
